Measured values as given in patent US7507739B2, “6-[(substituted)phenyl]triazolopyrimidines as anticancer agents” (Wyeth, priority 2003, dated 2009).

Tests used:
[1] = tested on: MAP-rich tubulin; assay: Tubulin polymerization test with MAP-rich tubulin; format: biochemical, bovine; conditions: 0.3 μM compound, 20 min, fold enhancement over control
Method in brief: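 Bovine brain MAP-rich tubulin (1.3 mg/mL) in PEM buffer pH 6.9 with 1 mM GTP, compounds at 0.3 μM final (0.3% DMSO), 24° for 60 min. Turbidity read at 340 nm each minute, baseline-subtracted; mean A340 at 20 min divided by solvent control gives fold enhancement.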

[2] = tested on: HeLa cells; assay: Cell cycle analysis with HeLa cells; format: cell-based, human; conditions: 18 hr
Procedure: HeLa cells are harvested by trypsinization, washed, counted and distributed to wells of 12-well plates at 125,000 cells per well in 2 mL medium. Cells are cultured overnight. […] Cells are continued in culture for 18 hr after compound addition, then cells in each well are harvested (taking care to recover both adherent and non-adherent cells) and processed using the CycleTEST PLUS kit (Becton Dickinson Immunocytometry Systems, San Jose, Calif.). Flow cytometry is done with a FACSort instrument (Becton Dickinson).
This procedure measures the percentages of cells in a population that are in the G1, S, and G2/M phases of the cell cycle. It utilizes staining of cell nuclei with propidium iodide and analysis by flow cytometry.

CN(C)CCCOc1cc(F)c(-c2c(Cl)nc3ncnn3c2NCC(F)(F)F)c(F)c1.Cl [Example 4a, 5-Chloro-6-{4-[3-(dimethylamino)propoxy]-2,6-difluorophenyl}-N-(2,2,2-trifluoroethyl)[1,2,4]triazolo[1,5-a]pyrimidin-7-amine Hydrogen chloride Salt]
A340 Compound/A340 Control [1]: 8.1
Percent in Cell Cycle Phase >4N ([2]; 20 nM): 2%
Percent in Cell Cycle Phase Apop ([2]; 20 nM): 6%
Percent in Cell Cycle Phase G1 ([2]; 20 nM): 60%
Percent in Cell Cycle Phase G2/M ([2]; 20 nM): 15%
Percent in Cell Cycle Phase S ([2]; 20 nM): 17%
Percent in Cell Cycle Phase >4N ([2]; 30 nM): 1%
Percent in Cell Cycle Phase Apop ([2]; 30 nM): 44%
Percent in Cell Cycle Phase G1 ([2]; 30 nM): 29%
Percent in Cell Cycle Phase G2/M ([2]; 30 nM): 15%
Percent in Cell Cycle Phase S ([2]; 30 nM): 12%
Percent in Cell Cycle Phase >4N ([2]; 40 nM): 2%
Percent in Cell Cycle Phase Apop ([2]; 40 nM): 65%
Percent in Cell Cycle Phase G1 ([2]; 40 nM): 8%
Percent in Cell Cycle Phase G2/M ([2]; 40 nM): 17%
Percent in Cell Cycle Phase S ([2]; 40 nM): 8%
Percent in Cell Cycle Phase >4N ([2]; 50 nM): 2%
Percent in Cell Cycle Phase Apop ([2]; 50 nM): 54%
Percent in Cell Cycle Phase G1 ([2]; 50 nM): 6%
Percent in Cell Cycle Phase G2/M ([2]; 50 nM): 29%
Percent in Cell Cycle Phase S ([2]; 50 nM): 9%
Percent in Cell Cycle Phase >4N ([2]; 60 nM): 2%
Percent in Cell Cycle Phase Apop ([2]; 60 nM): 64%
Percent in Cell Cycle Phase G1 ([2]; 60 nM): 13%
Percent in Cell Cycle Phase G2/M ([2]; 60 nM): 15%
Percent in Cell Cycle Phase S ([2]; 60 nM): 8%
Percent in Cell Cycle Phase >4N ([2]; 70 nM): 4%
Percent in Cell Cycle Phase Apop ([2]; 70 nM): 25%
Percent in Cell Cycle Phase G1 ([2]; 70 nM): 3%
Percent in Cell Cycle Phase G2/M ([2]; 70 nM): 60%
Percent in Cell Cycle Phase S ([2]; 70 nM): 8%
Percent in Cell Cycle Phase >4N ([2]; 80 nM): 5%
Percent in Cell Cycle Phase Apop ([2]; 80 nM): 20%
Percent in Cell Cycle Phase G1 ([2]; 80 nM): 5%
Percent in Cell Cycle Phase G2/M ([2]; 80 nM): 63%
Percent in Cell Cycle Phase S ([2]; 80 nM): 7%
Percent in Cell Cycle Phase >4N ([2]; 90 nM): 5%
Percent in Cell Cycle Phase Apop ([2]; 90 nM): 22%
Percent in Cell Cycle Phase G1 ([2]; 90 nM): 5%
Percent in Cell Cycle Phase G2/M ([2]; 90 nM): 59%
Percent in Cell Cycle Phase S ([2]; 90 nM): 10%
Percent in Cell Cycle Phase >4N ([2]; 100 nM): 5%
Percent in Cell Cycle Phase Apop ([2]; 100 nM): 23%
Percent in Cell Cycle Phase G1 ([2]; 100 nM): 7%
Percent in Cell Cycle Phase G2/M ([2]; 100 nM): 57%
Percent in Cell Cycle Phase S ([2]; 100 nM): 9%
Percent in Cell Cycle Phase >4N ([2]; 110 nM): 5%
Percent in Cell Cycle Phase Apop ([2]; 110 nM): 23%
Percent in Cell Cycle Phase G1 ([2]; 110 nM): 6%
Percent in Cell Cycle Phase G2/M ([2]; 110 nM): 56%
Percent in Cell Cycle Phase S ([2]; 110 nM): 10%
Percent in Cell Cycle Phase >4N ([2]; 120 nM): 4%
Percent in Cell Cycle Phase Apop ([2]; 120 nM): 27%
Percent in Cell Cycle Phase G1 ([2]; 120 nM): 7%
Percent in Cell Cycle Phase G2/M ([2]; 120 nM): 53%
Percent in Cell Cycle Phase S ([2]; 120 nM): 10%

CC[C@]1(O)C[C@H]2CN(CCc3c([nH]c4ccccc34)[C@@](C(=O)OC)(c3cc4c(cc3OC)N(C=O)[C@H]3[C@@](O)(C(=O)OC)[C@H](OC(C)=O)[C@]5(CC)C=CCN6CC[C@]43[C@@H]65)C2)C1 [Vincristine, reference compound]
A340 Compound/A340 Control [1]: 0
Percent in Cell Cycle Phase >4N ([2]; 1 nM): 2%
Percent in Cell Cycle Phase Apop ([2]; 1 nM): 6%
Percent in Cell Cycle Phase G1 ([2]; 1 nM): 57%
Percent in Cell Cycle Phase G2/M ([2]; 1 nM): 17%
Percent in Cell Cycle Phase S ([2]; 1 nM): 18%
Percent in Cell Cycle Phase >4N ([2]; 2 nM): 2%
Percent in Cell Cycle Phase Apop ([2]; 2 nM): 8%
Percent in Cell Cycle Phase G1 ([2]; 2 nM): 55%
Percent in Cell Cycle Phase G2/M ([2]; 2 nM): 18%
Percent in Cell Cycle Phase S ([2]; 2 nM): 18%
Percent in Cell Cycle Phase >4N ([2]; 4 nM): 2%
Percent in Cell Cycle Phase Apop ([2]; 4 nM): 9%
Percent in Cell Cycle Phase G1 ([2]; 4 nM): 50%
Percent in Cell Cycle Phase G2/M ([2]; 4 nM): 23%
Percent in Cell Cycle Phase S ([2]; 4 nM): 17%
Percent in Cell Cycle Phase >4N ([2]; 6 nM): 3%
Percent in Cell Cycle Phase Apop ([2]; 6 nM): 11%
Percent in Cell Cycle Phase G1 ([2]; 6 nM): 45%
Percent in Cell Cycle Phase G2/M ([2]; 6 nM): 27%
Percent in Cell Cycle Phase S ([2]; 6 nM): 15%
Percent in Cell Cycle Phase >4N ([2]; 8 nM): 3%
Percent in Cell Cycle Phase Apop ([2]; 8 nM): 12%
Percent in Cell Cycle Phase G1 ([2]; 8 nM): 40%
Percent in Cell Cycle Phase G2/M ([2]; 8 nM): 32%
Percent in Cell Cycle Phase S ([2]; 8 nM): 14%
Percent in Cell Cycle Phase >4N ([2]; 10 nM): 3%
Percent in Cell Cycle Phase Apop ([2]; 10 nM): 16%
Percent in Cell Cycle Phase G1 ([2]; 10 nM): 27%
Percent in Cell Cycle Phase G2/M ([2]; 10 nM): 41%
Percent in Cell Cycle Phase S ([2]; 10 nM): 13%
Percent in Cell Cycle Phase >4N ([2]; 15 nM): 4%
Percent in Cell Cycle Phase Apop ([2]; 15 nM): 19%
Percent in Cell Cycle Phase G1 ([2]; 15 nM): 20%
Percent in Cell Cycle Phase G2/M ([2]; 15 nM): 44%
Percent in Cell Cycle Phase S ([2]; 15 nM): 14%
Percent in Cell Cycle Phase >4N ([2]; 20 nM): 4%
Percent in Cell Cycle Phase Apop ([2]; 20 nM): 18%
Percent in Cell Cycle Phase G1 ([2]; 20 nM): 15%
Percent in Cell Cycle Phase G2/M ([2]; 20 nM): 51%
Percent in Cell Cycle Phase S ([2]; 20 nM): 12%
Percent in Cell Cycle Phase >4N ([2]; 25 nM): 4%
Percent in Cell Cycle Phase Apop ([2]; 25 nM): 17%
Percent in Cell Cycle Phase G1 ([2]; 25 nM): 14%
Percent in Cell Cycle Phase G2/M ([2]; 25 nM): 52%
Percent in Cell Cycle Phase S ([2]; 25 nM): 13%
Percent in Cell Cycle Phase >4N ([2]; 30 nM): 4%
Percent in Cell Cycle Phase Apop ([2]; 30 nM): 19%
Percent in Cell Cycle Phase G1 ([2]; 30 nM): 12%
Percent in Cell Cycle Phase G2/M ([2]; 30 nM): 55%
Percent in Cell Cycle Phase S ([2]; 30 nM): 11%
Percent in Cell Cycle Phase >4N ([2]; 40 nM): 4%
Percent in Cell Cycle Phase Apop ([2]; 40 nM): 18%
Percent in Cell Cycle Phase G1 ([2]; 40 nM): 8%
Percent in Cell Cycle Phase G2/M ([2]; 40 nM): 57%
Percent in Cell Cycle Phase S ([2]; 40 nM): 13%
